Experimental data published in ChEMBL document CHEMBL3407397, “Effect of size and N-terminal residue characteristics on bacterial cell penetration and antibacterial activity of the proline-rich peptide Bac7” (J Med Chem, 2015).
Converted amounts (≈) assume the structure as drawn. The source made the active and inactive calls. The rule behind the calls is not given here. Non-standard residues stand in square brackets, D forms with d. Residues, ends and D or L forms follow the SMILES beside them. *: point of attachment. X1 = F[B-]1(F)n2c(ccc2*)C=C2C=CC=[N+]21; Cit = NC(=O)NCCC[C@H](N)C(=O)O

Assays:
Escherichia coli [1] = experiment: Drug uptake in O-antigen lacking LPS containing wild type Escherichia coli BW25113 at 1 uM up to 3.5 hrs in presence of trypan blue quencher; format: ADME, organism-based; conditions: in vivo
Escherichia coli [2] = experiment: Drug uptake in delta-waaG deletion mutant containing Escherichia coli BW25113 at 4 uM up to 3.5 hrs in presence of trypan blue quencher; format: ADME, organism-based; conditions: in vivo
Escherichia coli [3] = experiment: Drug uptake in Escherichia coli ATCC 25922 assessed as mean fluorescence intensity using BODIPY-labeled compound at 0.25 to 4 uM incubated for 10 mins by flow cytometry; format: ADME, organism-based; conditions: in vivo
Escherichia coli [4] = experiment: Drug uptake in Escherichia coli ATCC 25922 assessed as mean fluorescence intensity using BODIPY-labeled compound at 0.25 to 4 uM incubated for 10 mins in presence of trypan blue quencher by flow cytometry; format: ADME, organism-based; conditions: in vivo
Escherichia coli [5] = experiment: Drug uptake in Escherichia coli ATCC 25922 assessed as mean fluorescence intensity using BODIPY-labeled compound at 0.25 to 4 uM incubated for 60 mins by flow cytometry; format: ADME, organism-based; conditions: in vivo, 1 h
Escherichia coli [6] = experiment: Drug uptake in Escherichia coli ATCC 25922 assessed as mean fluorescence intensity using BODIPY-labeled compound at 0.25 to 4 uM incubated for 60 mins in presence of trypan blue quencher by flow cytometry; format: ADME, organism-based; conditions: in vivo, 1 h
Escherichia coli [7] = experiment: Drug uptake in Escherichia coli ATCC 25922 assessed as mean fluorescence intensity using BODIPY-labeled compound at 0.25 uM incubated for 10 mins by confocal microscopy; format: ADME, organism-based; conditions: in vivo
Escherichia coli [8] = experiment: Antimicrobial activity against Escherichia coli ATCC 25922 incubated for 18 hrs at 37 degC by broth microdilution method; format: functional; conditions: ATCC 25922, 18 h
Escherichia coli [9] = experiment: Antimicrobial activity against Escherichia coli HB101 incubated for 18 hrs at 37 degC by broth microdilution method; format: functional; conditions: HB101, 18 h
Escherichia coli [10] = experiment: Antimicrobial activity against O-antigen lacking LPS containing wild type Escherichia coli BW25113 incubated for 18 hrs at 37 degC by broth microdilution method; format: functional; conditions: BW25113, 18 h
Escherichia coli [11] = experiment: Antimicrobial activity against delta-waaG deletion mutant containing Escherichia coli BW25113 incubated for 18 hrs at 37 degC by broth microdilution method; format: functional; conditions: BW25113, 18 h
Escherichia coli [12] = experiment: Antimicrobial activity against delta-sbmA deletion mutant containing Escherichia coli BW25113 incubated for 18 hrs at 37 degC by broth microdilution method; format: functional; conditions: BW25113, 18 h
Escherichia coli [13] = experiment: Bacteriostatic activity against O-antigen lacking LPS containing wild type Escherichia coli BW25113 at 4 uM incubated for 3.5 hrs; format: functional, organism-based
Escherichia coli [14] = experiment: Bacteriostatic activity against delta-waaG deletion mutant containing wild type Escherichia coli BW25113 at 4 uM incubated for 3.5 hrs; format: functional, organism-based
Escherichia coli [15] = experiment: Bactericidal activity against O-antigen lacking LPS containing wild type Escherichia coli BW25113 assessed as bacterial killing at 4 uM incubated for 3.5 hrs; format: functional, organism-based
Escherichia coli [16] = experiment: Bactericidal activity against delta-waaG deletion mutant containing wild type Escherichia coli BW25113 assessed as bacterial killing at 4 uM incubated for 3.5 hrs; format: functional, organism-based
Escherichia coli [17] = experiment: Drug uptake in O-antigen lacking LPS containing wild type Escherichia coli BW25113 up to 32 uM incubated for 60 mins by propidium iodide staining based cytofluorimetric method; format: ADME, organism-based; conditions: in vivo, 1 h

**Q.** With `CC[C@H](C)[C@H](N)C(=O)N[C@@H](CCCNC(=N)N)C(=O)N1CCC[C@H]1C(=O)N[C@@H](CCCNC(=N)N)C(=O)N1CCC[C@H]1C(=O)N1CCC[C@H]1C(=O)N[C@@H](CCCNC(=N)N)C(=O)N[C@@H](CC(C)C)C(=O)N1CCC[C@H]1C(=O)N[C@@H](CCCNC(=N)N)C(=O)N1CCC[C@H]1C(=O)N[C@@H](CCCNC(=N)N)C(=O)N1CCC[C@H]1C(=O)N[C@@H](CCCNC(=N)N)C(=O)N1CCC[C@H]1C(=O)N[C@@H](CC(C)C)C(=O)N1CCC[C@H]1C(=O)N[C@@H](Cc1ccc(O)cc1)C(=O)N1CCC[C@H]1C(=O)N[C@@H](CCCNC(=N)N)C(=O)N1CCC[C@H]1C(=O)N[C@@H](CSc1ccc2n1[B-](F)(F)[N+]1=CC=CC1=C2)C(=O)O` (H-IRPRPPRLPRPRPRPLPYPRPC(X1)-OH) as the compound, how does the Drug uptake (Escherichia coli [1]) read?
**A.** The Drug uptake was “Active”.

**Q.** What about the Drug uptake (Escherichia coli [2]) of the same compound?
**A.** Its Drug uptake is “Active”.

**Q.** For `CC[C@H](C)[C@H](NC(=O)[C@H](CCCNC(=N)N)NC(=O)[C@@H](N)CCCNC(=N)N)C(=O)N[C@@H](CCCNC(=N)N)C(=O)N1CCC[C@H]1C(=O)N[C@@H](CCCNC(=N)N)C(=O)N1CCC[C@H]1C(=O)N1CCC[C@H]1C(=O)N[C@@H](CCCNC(=N)N)C(=O)N[C@@H](CC(C)C)C(=O)N1CCC[C@H]1C(=O)N[C@@H](CCCNC(=N)N)C(=O)N1CCC[C@H]1C(=O)N[C@@H](CSc1ccc2n1[B-](F)(F)[N+]1=CC=CC1=C2)C(=O)O` (H-RRIRPRPPRLPRPC(X1)-OH), which Drug uptake (Escherichia coli [3]) is on record?
**A.** The Drug uptake was “Not Active”.

**Q.** What about the Drug uptake (Escherichia coli [4]) of the same compound?
**A.** The Drug uptake was “Not Active”.

**Q.** What about the Drug uptake (Escherichia coli [5]) of the same compound?
**A.** The Drug uptake was “Not Active”.

**Q.** And the Drug uptake (Escherichia coli [6])?
**A.** The Drug uptake was “Not Active”.

**Q.** What about the Drug uptake (Escherichia coli [7]) of the same compound?
**A.** The Drug uptake was “Active”.

**Q.** And the MIC (Escherichia coli [8])?
**A.** The MIC was 16 µM (≈ 31.4 µg/mL).

**Q.** What about the MIC (Escherichia coli [9]) of the same compound?
**A.** Its MIC is 8 µM (≈ 15.7 µg/mL).

**Q.** Which results are given for H-IRPRPPRLPRPRPRPLPYPRP-OH?
**A.** MIC (Escherichia coli [8]): 8 µM; MIC (Escherichia coli [10]): 8 µM; MIC (Escherichia coli [11]): 4 µM; MIC (Escherichia coli [12]): 32 µM; Activity (Escherichia coli [13]): Active; Activity (Escherichia coli [14]): Active

**Q.** Which MIC (Escherichia coli [8]) does the source give for `CC[C@H](C)[C@H](NC(=O)[C@H](CCCNC(N)=O)NC(=O)[C@@H](N)CCCNC(N)=O)C(=O)N[C@@H](CCCNC(=N)N)C(=O)N1CCC[C@H]1C(=O)N[C@@H](CCCNC(=N)N)C(=O)N1CCC[C@H]1C(=O)N1CCC[C@H]1C(=O)N[C@@H](CCCNC(=N)N)C(=O)N[C@@H](CC(C)C)C(=O)N1CCC[C@H]1C(=O)N[C@@H](CCCNC(=N)N)C(=O)N1CCC[C@H]1C(=O)N[C@@H](CCCNC(=N)N)C(=O)N1CCC[C@H]1C(=O)N[C@@H](CCCNC(=N)N)C(=O)N1CCC[C@H]1C(=O)N[C@@H](CC(C)C)C(=O)N1CCC[C@H]1C(=O)N[C@@H](Cc1ccc(O)cc1)C(=O)N1CCC[C@H]1C(=O)N[C@@H](CCCNC(=N)N)C(=O)N1CCC[C@H]1C(=O)O` (H-[Cit][Cit]IRPRPPRLPRPRPRPLPYPRP-OH) here?
**A.** The MIC was 32 µM (≈ 92.8 µg/mL).

**Q.** And the MIC (Escherichia coli [10])?
**A.** The MIC was 32 µM (≈ 92.8 µg/mL).

**Q.** And the MIC (Escherichia coli [11])?
**A.** Its MIC is 8 µM (≈ 23.2 µg/mL).

**Q.** What about the MIC (Escherichia coli [12]) of the same compound?
**A.** The MIC was over 64 µM.

**Q.** And the Drug uptake (Escherichia coli [1])?
**A.** The Drug uptake was “Active”.

**Q.** And the Drug uptake (Escherichia coli [2])?
**A.** The Drug uptake was “Active”.

**Q.** And the Activity (Escherichia coli [13])?
**A.** Its Activity is “Active”.

**Q.** And the Activity (Escherichia coli [14])?
**A.** Its Activity is “Active”.

**Q.** Which Drug uptake (Escherichia coli [3]) does the source give for `CC[C@H](C)[C@H](NC(=O)[C@H](CCCNC(=N)N)NC(=O)[C@@H](N)CCCNC(=N)N)C(=O)N[C@@H](CCCNC(=N)N)C(=O)N1CCC[C@H]1C(=O)N[C@@H](CCCNC(=N)N)C(=O)N1CCC[C@H]1C(=O)N1CCC[C@H]1C(=O)N[C@@H](CCCNC(=N)N)C(=O)N[C@@H](CC(C)C)C(=O)N1CCC[C@H]1C(=O)N[C@@H](CCCNC(=N)N)C(=O)N1CCC[C@H]1C(=O)N[C@@H](CCCNC(=N)N)C(=O)N1CCC[C@H]1C(=O)N[C@@H](CCCNC(=N)N)C(=O)N1CCC[C@H]1C(=O)N[C@@H](CC(C)C)C(=O)N1CCC[C@H]1C(=O)N[C@@H](Cc1ccccc1)C(=O)N1CCC[C@H]1C(=O)N[C@@H](CCCNC(=N)N)C(=O)N1CCC[C@H]1C(=O)N[C@@H](CSc1ccc2n1[B-](F)(F)[N+]1=CC=CC1=C2)C(=O)O` (H-RRIRPRPPRLPRPRPRPLPFPRPC(X1)-OH) here?
**A.** The Drug uptake was “Active”.

**Q.** What about the Drug uptake (Escherichia coli [4]) of the same compound?
**A.** Its Drug uptake is “Active”.

**Q.** What about the Drug uptake (Escherichia coli [5]) of the same compound?
**A.** The Drug uptake was “Active”.

**Q.** What about the Drug uptake (Escherichia coli [6]) of the same compound?
**A.** Its Drug uptake is “Active”.

**Q.** And the Drug uptake (Escherichia coli [1])?
**A.** The Drug uptake was “Not Active”.

**Q.** How did the Drug uptake (Escherichia coli [3]) turn out when `CC[C@H](C)[C@H](NC(=O)[C@H](CCCNC(=N)N)NC(=O)[C@@H](N)CCCNC(=N)N)C(=O)N[C@@H](CCCNC(=N)N)C(=O)N1CCC[C@H]1C(=O)N[C@@H](CCCNC(=N)N)C(=O)N1CCC[C@H]1C(=O)N1CCC[C@H]1C(=O)N[C@@H](CCCNC(=N)N)C(=O)N[C@@H](CC(C)C)C(=O)N1CCC[C@H]1C(=O)N[C@@H](CCCNC(=N)N)C(=O)N1CCC[C@H]1C(=O)N[C@@H](CCCNC(=N)N)C(=O)N1CCC[C@H]1C(=O)N[C@@H](CCCNC(=N)N)C(=O)N1CCC[C@H]1C(=O)N[C@@H](CC(C)C)C(=O)N1CCC[C@H]1C(=O)N[C@@H](Cc1ccccc1)C(=O)N1CCC[C@H]1C(=O)N[C@@H](CCCNC(=N)N)C(=O)N1CCC[C@H]1C(=O)NCC(=O)N1CCC[C@H]1C(=O)N[C@@H](CCCNC(=N)N)C(=O)N1CCC[C@H]1C(=O)N[C@H](C(=O)N1CCC[C@H]1C(=O)N[C@@H](CCCNC(=N)N)C(=O)N1CCC[C@H]1C(=O)N[C@@H](CC(C)C)C(=O)N1CCC[C@H]1C(=O)N[C@@H](Cc1ccccc1)C(=O)N1CCC[C@H]1C(=O)N[C@@H](CSc1ccc2n1[B-](F)(F)[N+]1=CC=CC1=C2)C(=O)O)[C@@H](C)CC` (H-RRIRPRPPRLPRPRPRPLPFPRPGPRPIPRPLPFPC(X1)-OH) was run?
**A.** The Drug uptake was “Active”.

**Q.** What about the Drug uptake (Escherichia coli [4]) of the same compound?
**A.** The Drug uptake was “Active”.

**Q.** What about the Drug uptake (Escherichia coli [5]) of the same compound?
**A.** The Drug uptake was “Active”.

**Q.** And the Drug uptake (Escherichia coli [6])?
**A.** The Drug uptake was “Active”.

**Q.** And the Drug uptake (Escherichia coli [7])?
**A.** Its Drug uptake is “Active”.

**Q.** What does the source list for `CC[C@H](C)[C@H](NC(=O)[C@H](CCCNC(=N)N)NC(=O)[C@@H](N)CCCNC(=N)N)C(=O)N[C@@H](CCCNC(=N)N)C(=O)N1CCC[C@H]1C(=O)N[C@@H](CCCNC(=N)N)C(=O)N1CCC[C@H]1C(=O)N1CCC[C@H]1C(=O)N[C@@H](CCCNC(=N)N)C(=O)N[C@@H](CC(C)C)C(=O)N1CCC[C@H]1C(=O)N[C@@H](CCCNC(=N)N)C(=O)N1CCC[C@H]1C(=O)N[C@@H](CCCNC(=N)N)C(=O)N1CCC[C@H]1C(=O)N[C@@H](CCCNC(=N)N)C(=O)N1CCC[C@H]1C(=O)N[C@@H](CC(C)C)C(=O)N1CCC[C@H]1C(=O)N[C@@H](Cc1ccc(O)cc1)C(=O)N1CCC[C@H]1C(=O)N[C@@H](CCCNC(=N)N)C(=O)N1CCC[C@H]1C(=O)O`?
**A.** MIC (Escherichia coli [8]): 0.5 µM (≈ 1.45 µg/mL); MIC (Escherichia coli [9]): 0.5 µM (≈ 1.45 µg/mL); MIC (Escherichia coli [10]): 1 µM (≈ 2.9 µg/mL); MIC (Escherichia coli [11]): 0.5 µM (≈ 1.45 µg/mL); MIC (Escherichia coli [12]): 8 µM (≈ 23.2 µg/mL); Activity (Escherichia coli [15]): Active; Activity (Escherichia coli [16]): Active; Drug uptake (Escherichia coli [17]): Not Active
